These are literature values, as cited in patent US4996231A, “Triyne cyclic carbonates” (Merck & Co., Inc., priority 1989, dated 1991).

One data set concerns cytosolic β-ketothiolase. As to conditions: initial enzyme of cholesterol biosynthesis.
In data set [1] the test system is certain bacterial strains.

Turning to `C#CC#CC#CC(O)C1OC(=O)OC1CCCCCCC(=O)O` (stereo not shown) [triyne carbonate A, 5-(1-hydroxy-2,4,6-heptatriynyl)-2-oxo-1,3 dioxolane 4heptanoic acid], the “instability of the compound in vivo” value is reported as “relative instability”. Also, in the data set on cytosolic β-ketothiolase, the “inhibitor of cytosolic β-ketothiolase” value is reported as “potent inhibitor”. For the same molecule, in data set [1], the “active against certain bacterial strains” value is “active against certain fungal and bacterial strains”. The “active against certain fungal strains” value in the data set on certain fungal strains was “active against certain fungal and bacterial strains”.
